Earlier results, collected in patent US20070208041A1, “Compositions for the treatment and prevention of heart disease and methods of using same” (priority 2005, published 2007).

Assays:
[1] = tested on: phenylephrine-constricted rat aorta
[2] = allopurinol alone

O=[N+]([O-])OCC(CO[N+](=O)[O-])O[N+](=O)[O-] [GTN]
effect of ALDH-2 inhibitor benomyl on vasodilator response [1]: reduced the vasodilator potency, but not the efficacy

Oc1ncnc2[nH]ncc12 [allopurinol]
outcome of clinical trials [2]: not successful

O=[N+]([O-])O[C@H]1CO[C@H]2[C@@H]1OC[C@H]2O[N+](=O)[O-] [isosorbide dinitrate, 1,4:3,6-dianhydrosorbitol 2,5-dinitrate]
effect of ALDH-2 inhibitor benomyl on vasodilator response [1]: not affected

O=[N+]([O-])O[C@@H]1CO[C@H]2[C@@H]1OC[C@@H]2O [isosorbide-5-mononitrate, 1,4:3,6-dianhydrosorbitol 5-mononitrate]
effect of ALDH-2 inhibitor benomyl on vasodilator response [1]: not affected

O=[N+]([O-])OCC(CO)(CO)CO [pentaerythritol mononitrate]
effect of ALDH-2 inhibitor benomyl on vasodilator response [1]: not affected
